Results as given in patent publication US20130172294A1, “Treatment with VB-201” (Vascular Biogenics Ltd., priority 2010, published 2013).

Test: Effect of food and capsule coating on single-dose pharmacokinetics (Example 3)
Type: in vivo, human
Protocol: Determination of VB-201 concentrations in plasma was performed using an HPLC-MS/MS (high performance liquid chromatography with tandem mass spectrometric detection) assay. Calibration was for a range of from 5 to 500 ng/ml for low doses and from 50 to 5000 ng/ml for high doses. Pharmacokinetic parameters were estimated by using a non-compartmental method, except for the AUC (area under curve), which was determined using a (log-) trapezoidal rule as the area above the previous trough level. All calculations were made using PKWizard (developed by Russell Barbare and Dr. […] was validated against WinNonlin (Pharsight Corp.), which is an FDA-recognized validated program. Pharmacokinetic parameters were calculated by the program according to standard methods used in the art. Calculation of the pharmacokinetic characteristics was based on the actual blood sampling time (in hours), with predose times set to zero. Concentrations below the LLOQ (lower limit of quantification; 4.974 ng/ml) were assumed to be zero. The effects of food on the pharmacokinetics of enteric coated and non-coated VB-201 capsules were investigated in a double-blind, placebo-controlled study in healthy subjects. Cohorts of six subjects each received a single dose of 10 mg, 2×10 mg or 20 mg VB-201 in the morning. […] Subjects were randomly assigned to receive the drug when fed (i.e., following completion of a standardized high fat meal) or when fasting (i.e., fasting for at least 10 hours). […] Subjects then underwent an additional 8 day washout period, after which subjects underwent a second administration. Subjects who received the first administration when fasting, received the second administration when fed, and subjects who received the first administration when fed, received the second administration when fasting. Following the second administration, blood samples were taken at the same times post-dose as previously. Concentration-time curves were constructed for time periods of up to 144 hours. Pharmacokinetic parameters were calculated based on data for the first 24 hours and for the whole 144 hours. […] Nevertheless, parameters were also calculated from data covering the first 24 hours in order to compare parameters with previous studies. Statistical comparisons of doses, coated vs. non-coated capsules, feeding vs. fasting and coating-feeding interactions were performed using a mixed model ANOVA in an SAS 8.02 software package (SAS Institute, Cary, N.C.) using PROC MIXED

CCCCCCCCCCCCCCCCOCC(COP(=O)([O-])OCC[N+](C)(C)C)OCCCCC(=O)O (stereo not drawn) [VB-201, 1-hexadecyl-2-(4′-carboxybutyl)-glycerol-3-phosphocholine]
AUC (0-infinity, from 24) (1 × 10 mg coated fasting): 4.801 µg·h/mL
AUC (0-infinity, from 144) (1 × 10 mg coated fasting): 8.017 µg·h/mL
AUC(0-24) (1 × 10 mg coated fasting): 2.602 µg·h/mL
AUC(0-144) (1 × 10 mg coated fasting): 7.397 µg·h/mL
AUMC (0-24) (1 × 10 mg coated fasting): 33556 hours^2*ng/ml
AUMC (0-infinity) (1 × 10 mg coated fasting): 467760 hours^2*ng/ml
Cl/F (0-24) (1 × 10 mg coated fasting): 3.293 L/h
Cl/F (from 144) (1 × 10 mg coated fasting): 1.580 L/h
Cmax (1 × 10 mg coated fasting): 0.1714 µg/mL
Ke (from 24) (1 × 10 mg coated fasting): 0.0438 h⁻¹
Ke (from 144) (1 × 10 mg coated fasting): 0.0201 h⁻¹
MTT (0-24) (1 × 10 mg coated fasting): 12.8 h
MTT (from 144) (1 × 10 mg coated fasting): 60.7 h
T1/2 (from 24) (1 × 10 mg coated fasting): 17.8 h
T1/2 (from 144) (1 × 10 mg coated fasting): 37.6 h
Tmax (1 × 10 mg coated fasting): 9.33 h
AUC (0-infinity, from 24) (1 × 10 mg coated fed): 5.898 µg·h/mL
AUC (0-infinity, from 144) (1 × 10 mg coated fed): 9.751 µg·h/mL
AUC(0-24) (1 × 10 mg coated fed): 2.202 µg·h/mL
AUC(0-144) (1 × 10 mg coated fed): 8.583 µg·h/mL
AUMC (0-24) (1 × 10 mg coated fed): 32798 hours^2*ng/ml
AUMC (0-infinity) (1 × 10 mg coated fed): 699311 hours^2*ng/ml
Cl/F (0-24) (1 × 10 mg coated fed): 1.883 L/h
Cl/F (from 144) (1 × 10 mg coated fed): 1.091 L/h
Cmax (1 × 10 mg coated fed): 0.1864 µg/mL
Ke (from 24) (1 × 10 mg coated fed): 0.0352 h⁻¹
Ke (from 144) (1 × 10 mg coated fed): 0.0166 h⁻¹
MTT (0-24) (1 × 10 mg coated fed): 15.1 h
MTT (from 144) (1 × 10 mg coated fed): 70.7 h
T1/2 (from 24) (1 × 10 mg coated fed): 23.4 h
T1/2 (from 144) (1 × 10 mg coated fed): 45.0 h
Tmax (1 × 10 mg coated fed): 13.67 h
AUC (0-infinity, from 24) (1 × 10 mg non-coated fasting): 9.375 µg·h/mL
AUC (0-infinity, from 144) (1 × 10 mg non-coated fasting): 15.995 µg·h/mL
AUC(0-24) (1 × 10 mg non-coated fasting): 5.759 µg·h/mL
AUC(0-144) (1 × 10 mg non-coated fasting): 14.544 µg·h/mL
AUMC (0-24) (1 × 10 mg non-coated fasting): 67186 hours^2*ng/ml
AUMC (0-infinity) (1 × 10 mg non-coated fasting): 924243 hours^2*ng/ml
Cl/F (0-24) (1 × 10 mg non-coated fasting): 1.184 L/h
Cl/F (from 144) (1 × 10 mg non-coated fasting): 0.695 L/h
Cmax (1 × 10 mg non-coated fasting): 0.3645 µg/mL
Ke (from 24) (1 × 10 mg non-coated fasting): 0.0575 h⁻¹
Ke (from 144) (1 × 10 mg non-coated fasting): 0.0190 h⁻¹
MTT (0-24) (1 × 10 mg non-coated fasting): 11.7 h
MTT (from 144) (1 × 10 mg non-coated fasting): 54.2 h
T1/2 (from 24) (1 × 10 mg non-coated fasting): 13.6 h
T1/2 (from 144) (1 × 10 mg non-coated fasting): 39.7 h
Tmax (1 × 10 mg non-coated fasting): 7.67 h
AUC (0-infinity, from 24) (1 × 10 mg non-coated fed): 7.019 µg·h/mL
AUC (0-infinity, from 144) (1 × 10 mg non-coated fed): 16.062 µg·h/mL
AUC(0-24) (1 × 10 mg non-coated fed): 4.855 µg·h/mL
AUC(0-144) (1 × 10 mg non-coated fed): 13.717 µg·h/mL
AUMC (0-24) (1 × 10 mg non-coated fed): 60611 hours^2*ng/ml
AUMC (0-infinity) (1 × 10 mg non-coated fed): 1254665 hours^2*ng/ml
Cl/F (0-24) (1 × 10 mg non-coated fed): 1.552 L/h
Cl/F (from 144) (1 × 10 mg non-coated fed): 0.702 L/h
Cmax (1 × 10 mg non-coated fed): 0.3433 µg/mL
Ke (from 24) (1 × 10 mg non-coated fed): 0.0670 h⁻¹
Ke (from 144) (1 × 10 mg non-coated fed): 0.0180 h⁻¹
MTT (0-24) (1 × 10 mg non-coated fed): 12.5 h
MTT (from 144) (1 × 10 mg non-coated fed): 70.3 h
T1/2 (from 24) (1 × 10 mg non-coated fed): 11.2 h
T1/2 (from 144) (1 × 10 mg non-coated fed): 47.7 h
Tmax (1 × 10 mg non-coated fed): 10.17 h
AUC (0-infinity, from 24) (1 × 20 mg coated fasting): 9.794 µg·h/mL
AUC (0-infinity, from 144) (1 × 20 mg coated fasting): 15.637 µg·h/mL
AUC(0-24) (1 × 20 mg coated fasting): 5.362 µg·h/mL
AUC(0-144) (1 × 20 mg coated fasting): 14.579 µg·h/mL
AUMC (0-24) (1 × 20 mg coated fasting): 68472 hours^2*ng/ml
AUMC (0-infinity) (1 × 20 mg coated fasting): 849853 hours^2*ng/ml
Cl/F (0-24) (1 × 20 mg coated fasting): 3.188 L/h
Cl/F (from 144) (1 × 20 mg coated fasting): 2.387 L/h
Cmax (1 × 20 mg coated fasting): 0.3663 µg/mL
Ke (from 24) (1 × 20 mg coated fasting): 0.0385 h⁻¹
Ke (from 144) (1 × 20 mg coated fasting): 0.0203 h⁻¹
MTT (0-24) (1 × 20 mg coated fasting): 12.8 h
MTT (from 144) (1 × 20 mg coated fasting): 53.8 h
T1/2 (from 24) (1 × 20 mg coated fasting): 19.9 h
T1/2 (from 144) (1 × 20 mg coated fasting): 35.6 h
Tmax (1 × 20 mg coated fasting): 8.17 h
AUC (0-infinity, from 24) (1 × 20 mg coated fed): 20.054 µg·h/mL
AUC (0-infinity, from 144) (1 × 20 mg coated fed): 16.687 µg·h/mL
AUC(0-24) (1 × 20 mg coated fed): 4.655 µg·h/mL
AUC(0-144) (1 × 20 mg coated fed): 14.968 µg·h/mL
AUMC (0-24) (1 × 20 mg coated fed): 66330 hours^2*ng/ml
AUMC (0-infinity) (1 × 20 mg coated fed): 1070977 hours^2*ng/ml
Cl/F (0-24) (1 × 20 mg coated fed): 1.400 L/h
Cl/F (from 144) (1 × 20 mg coated fed): 1.583 L/h
Cmax (1 × 20 mg coated fed): 0.3066 µg/mL
Ke (from 24) (1 × 20 mg coated fed): 0.0230 h⁻¹
Ke (from 144) (1 × 20 mg coated fed): 0.0179 h⁻¹
MTT (0-24) (1 × 20 mg coated fed): 14.9 h
MTT (from 144) (1 × 20 mg coated fed): 62.9 h
T1/2 (from 24) (1 × 20 mg coated fed): 53.2 h
T1/2 (from 144) (1 × 20 mg coated fed): 39.6 h
Tmax (1 × 20 mg coated fed): 11.67 h
